pKi: −log10 of the molar value.
Target: cdk2/cyclin A complex (Homo sapiens, UniProt P24941)
Assay: inhibition assay of cdk2/Cyclin A activity (MultiScreen-PH phosphocellulose filter plate, 33P-ATP, histone H1)
Assay type: biochemical
Settings: ATP and histone H1 substrate concentrations varied; random bireactant system equation; read-out: inhibiting activity towards the cdk2/cyclin A complex (Ki)
Experimental: The inhibiting activity of putative cdk/cyclin inhibitors and the potency of selected compounds was determined through a method of assay based on the use of the MultiScreen-PH 96 well plate (Millipore), in which a phosphocellulose filter paper was placed at each well bottom allowing binding of positive charged substrate after a washing/filtration step.
When a radioactivity labelled phosphate moiety was transferred by the ser/threo kinase to the filter-bound histone, light emitted was measured in a scintillation counter. The inhibition assay of cdk2/Cyclin A activity was performed according to the following protocol:
Kinase reaction: 1.5 μM histone H1 substrate, 25 μM ATP (0. 5 μCi P^33γ-ATP), 30 ng Cyclin A/cdk2 complex, […] in a final volume of 100 μl buffer (TRIS HCl 10 mM pH 7.5, MgCl2 10 mM, 7.5 mM DTT) were added to each well of a 96 U bottom well plate. After 10 min at 37° C. incubation, reaction was stopped by 20 μl EDTA 120 mM.
Capture: 100 μl were transferred from each well to MultiScreen plate, to allow substrate binding to phosphocellulose filter. […]
Detection: filters were allowed to dry at 37° C., then 100 μl/well scintillant were added and ^33P labelled histone H1 was detected by radioactivity counting in the Top-Count instrument.
Results: data were analysed and expressed as % inhibition referred to total activity of enzyme (=100%). […]

`CC(C)c1cnc(NC(=O)Cc2ccc(N(C)C)cc2)s1` [2-[4-(dimethylamino)phenyl]-N-(5-isopropyl-1,3-thiazol-2-yl)acetamide] showed a pKi of 7.00.

— patent publication US7037929B1, “2-amino-thiazole derivatives, process for their preparation, and their use as antitumor agents” (Pharmacia & Upjohn S.p.A., priority 1998, dated 2006)
